Test system: porcine skin stratum corneum
Assay: porcine skin stratum corneum evaluation (exfoliation evaluation)
Type: cell-based, pig
Conditions: 6 mm porcine skin sample, 100 ul sample, 37° C. and 50% humidity for a day; result in words (values only in figures)
Method: For the porcine skin stratum corneum evaluation of the present disclosure, the exfoliation evaluation method mentioned in Journal of the European Academy of Dermatology and Venereology, 2014, 28, 415-423 was modified and used. Specifically, a sample of 6 mm diameter from 1 mm thick skin of a pig, and the like, was taken with a biopsy tool, and it was placed in a 96-well plate, and after washing it with phosphate buffered saline (PBS) once, 100 ul of the sample to be tested was added. The present sample was stored under the conditions of 37° C. and 50% humidity for a day, and then the number of exfoliated stratum corneum was measured with a cell counter and a sample containing only water was plotted as a negative control group and 10% gluconolactone […] was plotted as a positive control group. The result was shown in the fold increase compared to the value of the result of gluconolactone 10% pH 6 for relative comparison.

NC(=O)NC1NC(=O)NC1=O (stereo not shown) [allantoin]
exfoliation ability (number of exfoliated stratum corneum, fold increase compared to gluconolactone 10% pH 6): did not have high efficacy when used alone
